Results from patent publication US10149839B2, “Chemical compounds” (AstraZeneca AB, priority 2016, dated 2018).
pIC50: −log10 of the molar value. ≈ marks a conversion by molar mass, not a printed value.

Tests used:
[1] = target: T1, Estrogen Receptor (ERα) in MCF-7 cells (Homo sapiens (Human), UniProt P03372); experiment: MCF-7 ER down-regulation assay (immuno-fluorescence); format: cell-based; settings: for pIC50: 18-22 hours incubation; for % downregulation: shown in brackets where not >90%
[2] = Thermodynamic solubility (shake flask); format: physicochemical; settings: aqueous phosphate buffer pH 7.4, 24 hours
[3] = Human plasma protein binding (equilibrium dialysis); format: in vitro ADME; settings: dialysis 18 hours
[4] = Log D (shake flask, 1-octanol/aqueous buffer); settings: pH 7.4, 1-octanol/aqueous buffer
[5] = target: estrogen receptor (ERα) in CAMA-1 cells (Homo sapiens (Human), UniProt P03372); experiment: Western blotting assay, CAMA-1 cells; format: cell-based; settings: compound 100 nM, 48 h, normalised to 100 nM fulvestrant (100%)
[6] = target: T1, Estrogen Receptor (ERα) in MCF-7 cells; experiment: Western blotting assay, MCF-7 cells; format: cell-based; settings: compound 100 nM, 48 h, normalised to 100 nM fulvestrant (100%)
[7] = physchem; settings: 1-octanol/aqueous buffer, pH 7.4
[8] = aqueous phosphate buffer, 25 °C, pH 7.4, aqueous buffer, thermodynamic from solid

T1 sequence (P03372 whole entry): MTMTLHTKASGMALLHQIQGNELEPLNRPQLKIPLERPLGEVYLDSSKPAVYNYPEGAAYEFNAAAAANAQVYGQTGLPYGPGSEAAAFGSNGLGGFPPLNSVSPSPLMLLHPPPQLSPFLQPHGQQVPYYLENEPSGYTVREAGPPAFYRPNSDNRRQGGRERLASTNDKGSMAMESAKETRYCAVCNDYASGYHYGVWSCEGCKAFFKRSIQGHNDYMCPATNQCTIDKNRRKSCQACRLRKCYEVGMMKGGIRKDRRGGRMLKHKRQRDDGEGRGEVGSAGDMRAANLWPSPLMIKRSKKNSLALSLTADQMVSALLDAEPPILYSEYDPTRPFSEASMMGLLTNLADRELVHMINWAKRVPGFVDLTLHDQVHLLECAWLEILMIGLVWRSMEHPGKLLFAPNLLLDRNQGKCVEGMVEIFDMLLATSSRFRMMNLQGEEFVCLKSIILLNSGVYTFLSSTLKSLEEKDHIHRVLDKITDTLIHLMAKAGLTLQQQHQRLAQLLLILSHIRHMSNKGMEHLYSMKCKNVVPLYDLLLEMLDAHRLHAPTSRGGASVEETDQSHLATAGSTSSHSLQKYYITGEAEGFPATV
Sequence of estrogen receptor (ERα) in CAMA-1 cells (P03372 whole entry): as above

SMILES | pIC50 [1] | solubility at 24 h ([2]; 25° C.) [µM] | Human plasma protein binding (% free) [3] [% free] | LogD pH 7.4 [4] | CAMA1 Western % ER deg vs Fv [5] [%] | MCF7 Western % ER deg vs Fv [6] [%] | solubility at 24 h [2, 8] [µM] | logD [7] | % downregulation [1]
C[C@@H]1Cc2c([nH]c3ccccc23)[C@@H](c2c(F)cc(OCC(CO)NCCCF)cc2F)N1CC(C)(C)F (single isomer, unassigned) [Example 53] | 9.85 | 23 (≈ 12 µg/mL) | 0.55 | >4.2 | – | – | – | – | –
C[C@@H]1Cc2c([nH]c3ccccc23)[C@@H](c2c(F)cc(OCCNCCCF)cc2F)N1CC(F)CF (single isomer, unassigned) [Example 16] | – | 149 (≈ 73.8 µg/mL) | 1.8 | 3.1 | – | – | – | – | –
COc1cc(OCCNCCCF)ncc1[C@@H]1c2[nH]c3ccccc3c2C[C@@H](C)N1CC(C)(F)F [Example 42, N-(2-((5-((1R,3R)-2-(2,2-Difluoropropyl)-3-methyl-2,3,4,9-tetrahydro-1H-pyrido[3,4-b]indol-1-yl)-4-methoxypyridin-2-yl)oxy)ethyl)-3-fluoropropan-1-amine] | 10.10 | – | 1.6 | – | 76 | 90 | 220 (≈ 108 µg/mL) | 3.3 | –
C[C@@H]1Cc2c([nH]c3ccccc23)[C@@H](c2c(F)cc(OCCNCCC(F)F)cc2F)N1CC(C)(C)F [Example 3, N-(2-(3,5-difluoro-4-((1R,3R)-2-(2-fluoro-2-methylpropyl)-3-methyl-2,3,4,9-tetrahydro-1H-pyrido[3,4-b]indol-1-yl)phenoxy)ethyl)-3,3-difluoropropan-1-amine] | 9.85 | – | <2.6 | – | 0 | 64 | 4 (≈ 2.04 µg/mL) | > 4.3 | –
C[C@@H]1Cc2c([nH]c3ccccc23)[C@@H](c2ccc(OCCNCCCF)cc2)N1C[C@H](F)CF (single isomer, unassigned) [Example 26] | 9.42 | 65 (≈ 29.9 µg/mL) | 2.7 | 3.2 | – | – | – | – | –
COc1cc(OCCNCCCF)ncc1[C@@H]1c2[nH]c3ccccc3c2C[C@@H](C)N1CC(F)(F)F [Example 41, 3-Fluoro-N-(2-((4-methoxy-5-((1R,3R)-3-methyl-2-(2,2,2-trifluoroethyl)-2,3,4,9-tetrahydro-1H-pyrido[3,4-b]indol-1-yl)pyridin-2-yl)oxy)ethyl)propan-1-amine] | 9.85 | – | 2.4 | – | 89 | 74 | 389 (≈ 192 µg/mL) | 3.2 | –
COc1cc(OCCNCCCF)cnc1[C@@H]1c2[nH]c3ccccc3c2C[C@@H](C)N1CC(C)(C)F [Example 35, 3-fluoro-N-(2-((6-((1S,3R)-2-(2-fluoro-2-methylpropyl)-3-methyl-2,3,4,9-tetrahydro-1H-pyrido[3,4-b]indol-1-yl)-5-methoxypyridin-3-yl)oxy)ethyl)propan-1-amine] | 9.55 | – | 2.2 | – | 82 | 81 | 99 (≈ 48.2 µg/mL) | 3.8 | –
COc1cc(OCCNCCCF)ncc1[C@@H]1c2[nH]c3ccccc3c2C[C@@H](C)N1CC(F)(F)CO [Example 64, 2,2-difluoro-3-((1R,3R)-1-(6-(2-((3-fluoropropyl)amino)ethoxy)-4-methoxypyridin-3-yl)-3-methyl-1,3,4,9-tetrahydro-2H-pyrido[3,4-b]indol-2-yl)propan-1-ol] | 9.68 | – | 12 | – | 87 | 73 | 849 (≈ 430 µg/mL) | 2.2 | –
COCC(C)(F)CN1[C@H](c2c(F)cc(OCCNCCCF)cc2F)c2[nH]c3ccccc3c2C[C@H]1C (single isomer, unassigned) [Example 51] | – | 53 (≈ 27.6 µg/mL) | 0.41 | 3.8 | – | – | – | – | –
C[C@@H]1Cc2c([nH]c3ccccc23)[C@@H](c2c(F)cc(NCCNCCCF)cc2F)N1CC1(F)COC1 [Example 44, N1-(3,5-difluoro-4-((1R,3R)-2-((3-fluorooxetan-3-yl)methyl)-3-methyl-2,3,4,9-tetrahydro-1H-pyrido[3,4-b]indol-1-yl)phenyl)-N2-(3-fluoropropyl)ethane-1,2-diamine] | 9.77 | – | 2.3 | – | 90 | 85 | 577 (≈ 291 µg/mL) | 3.1 | –
COc1cc(OCCNCCCF)ncc1[C@@H]1c2[nH]c3ccccc3c2C[C@@H](C)N1CC1(F)COC1 [Example 7, 3-fluoro-N-(2-((5-((1R,3R)-2-((3-fluorooxetan-3-yl)methyl)-3-methyl-2,3,4,9-tetrahydro-1H-pyrido[3,4-b]indol-1-yl)-4-methoxypyridin-2-yl)oxy)ethyl)propan-1-amine] | 9.29 | – | 17 | – | 48 | 74 | > 1000 | 2.3 | –
C[C@@H]1Cc2c([nH]c3ccccc23)[C@@H](c2c(F)cc(OCC(CO)NCCCF)cc2F)N1CC(C)(C)F (single isomer, unassigned) [Example 52] | 9.62 | 14 (≈ 7.3 µg/mL) | 0.47 | >4.1 | – | – | – | – | (79%)
COc1cc(OCCNCCCF)ncc1[C@@H]1c2[nH]c3ccccc3c2C[C@@H](C)N1CC(C)(C)F [Example 36, 3-fluoro-N-(2-((5-((1R,3R)-2-(2-fluoro-2-methylpropyl)-3-methyl-2,3,4,9-tetrahydro-1H-pyrido[3,4-b]indol-1-yl)-4-methoxypyridin-2-yl)oxy)ethyl)propan-1-amine] | 9.85 | – | 2.1 | – | 66 | 83 | 291 (≈ 142 µg/mL) | 3.5 | –
C[C@@H]1Cc2c([nH]c3ccccc23)[C@@H](c2cnc(OCCNCCCF)cn2)N1CC(C)(C)F [Example 38, 3-fluoro-N-(2-((5-((1S,3R)-2-(2-fluoro-2-methylpropyl)-3-methyl-2,3,4,9-tetrahydro-1H-pyrido[3,4-b]indol-1-yl)pyrazin-2-yl)oxy)ethyl)propan-1-amine] | 9.37 | – | 1.3 | – | 75 | 88 | 227 (≈ 104 µg/mL) | 3.3 | –
COc1nc(OCCNCCCF)ccc1[C@@H]1c2[nH]c3ccccc3c2C[C@@H](C)N1CC(F)F [Example 75, N-(2-((5-((1R,3R)-2-(2,2-difluoroethyl)-3-methyl-2,3,4,9-tetrahydro-1H-pyrido[3,4-b]indol-1-yl)-6-methoxypyridin-2-yl)oxy)ethyl)-3-fluoropropan-1-amine] | 8.92 | – | 1.0 | – | 60 | 31 | 411 (≈ 196 µg/mL) | 3.4 | –
C[C@@H]1Cc2c([nH]c3ccccc23)[C@@H](c2c(F)cc(N(C)CCNCCCF)cc2F)N1CC1(F)CC1 [Example 45, N1-(3,5-difluoro-4-((1R,3R)-2-((1-fluorocyclopropyl)methyl)-3-methyl-2,3,4,9-tetrahydro-1H-pyrido[3,4-b]indol-1-yl)phenyl)-N2-(3-fluoropropyl)-N1-methylethane-1,2-diamine] | 9.51 | – | 1.0 | – | 72 | 97 | 85 (≈ 42.7 µg/mL) | 3.5 | –
COCC(F)(F)CN1[C@H](c2c(F)cc(OCCNCCCF)cc2F)c2[nH]c3ccccc3c2C[C@H]1C [Example 14, N-(2-(4-((1R,3R)-2-(2,2-difluoro-3-methoxypropyl)-3-methyl-2,3,4,9-tetrahydro-1H-pyrido[3,4-b]indol-1-yl)-3,5-difluorophenoxy)ethyl)-3-fluoropropan-1-amine] | 9.19 | – | 0.9 | – | 31 | 61 | 10 (≈ 5.26 µg/mL) | 3.6 | (89%)
